Structures can show the parent of a compound that is named as a salt.

One data set addresses DHP membranous site. Description: Receptor binding at DHP membranous site with 3H-radiolabelled ligand isradipine. As to conditions: same value used as dose in aorta test, read-out: IC50 at the receptors. The method, then: (§1) For this purpose, the IC50 values were at first determined at the receptors (on the DHP membranous site with ^3 H-radiolabelled ligand isradipine and with these doses the percentage of inhibition in the contraction of the isolated aorta was determined.

Another data set concerns rat's isolated aorta. Briefly: Calcium blocking activity in vitro: KCl contraction of the rat's isolated aorta. The format is cell-based. The method, then:
The calcium blocking activity was determined in vitro by using the method of contracting the rat's isolated aorta with KCI (see Bernard Swynghedauw--Animal Experiments in Cardiology, Collection INSERM Medicine Sciences, Flammarion).
as §1

The nature of data set [1]: Solubility in water (noted in preparation). The format is physicochemical. As to conditions: isolated powder, in words.
The nature of data set [2]: Acute toxicity (intraperitoneal) in rats. As to conditions: rat, in vivo, ip, Sprague-Dawley rats, Example 1 given as 20 mg/ml aqueous suspension, nicardipine under the same conditions. The method, then: The acute toxicity of the compound of example 1 was determined on rats injected intraperitoneally (Sprague-Dawley rats) and the product was administered as a 20 mg/ml aqueous suspension.

Data set [3] concerns conscious Wistar rats suffering from genetic hypertension. Description: Effects on mean arterial pressure and heartbeat frequency in conscious rats suffering from genetic hypertension. Type of data set: in vivo, rat (Wistar). As to conditions: oral, 16 mg/kg; for Heartbeat frequency / tachycardiac effect (in words): early effect (nicardipine after five minutes). The method, then:
The effects were tested using conscious Wistar rats suffering from genetic hypertension (6 rats per compound). The compounds were administered orally as a 16 mg/kg (under 5.3 ml/kg) dose in suspension.

The test system of data set [4] is histamine hyperpermeability in Sprague-Dawley rats. Briefly: Effect on histamine hyperpermeability (Evan's Blue intradermal extravasation). The format is in vivo, rat (Sprague-Dawley). The protocol:
The effect of CRL 41695 administered intraperitoneally on hystamine hyperpermeability was tested on Sprague-Dawley rats.
The parameter tested was the effect on Evan's Blue intradermal extravasation induced by histamine injection.
24 hours after shaving and epilation of the rat's flanks, CRL 41695 was injected intraperitoneally at dose levels of 10 mg/kg (dispersed in 0.9% NaCl +5% carboxymethylcellulose) and 10 minutes later 0.25 ml/100 g of Evan's Blue at 2% injected intravenously.
0.1 ml of 0.9% NaCl was then injected intradermally in the left flank and 0.01 ml of histamine ([…]) in the right flank.
The rats were sacrificed after 40 minutes and the injection sites removed. The Evan's Blue was extracted from the skin with 65% formamide and the solvent was removed by filtration. The optical density was determined as 620 nm.

In the case of `COC(=O)C1=C(C)NC(C)=C(C(=O)O[C@H]2CCCN(CCCC(=O)c3c(OC)cc(OC)cc3OC)C2)[C@H]1c1cccc([N+](=O)[O-])c1` (single isomer, unassigned) [Example 8, hydrochloride], the IC50 (commonly the concentration that gives 50% inhibition) at DHP membranous site worked out at 4 nM. In addition, in the data set with rat's isolated aorta (dose 4 × 10^-9 M (= receptor IC50)), the inhibition (usually the relative decrease from the control value, in per cent) at 0.004 µM is 40%. Also, the Solubility in water result in data set [1] is listed as “water-insoluble”.

Consider `COC(=O)C1=C(C)NC(C)=C(C(=O)O[C@@H]2CCCN(CCCC(=O)c3c(OC)cc(OC)cc3OC)C2)[C@H]1c1cccc([N+](=O)[O-])c1` (single isomer, unassigned) [Example 9, hydrochloride], for which the IC50 on DHP membranous site is 0.6 nM. For the same compound, in the data set with rat's isolated aorta (dose 6 × 10^-10 M (= receptor IC50)), the inhibition at 0.0006 µM was 60%. In addition, the Solubility in water entry in data set [1] was “water-insoluble”.

For `COC(=O)C1=C(C)NC(C)=C(C(=O)OC2CCCN(CCCC(=O)c3c(OC)cc(OC)cc3OC)C2)C1c1cccc([N+](=O)[O-])c1` (centres unmarked) [Example 1, 2,6-dimethyl-4-(3-nitro-phenyl)-5-methoxycarbonyl-1,4-dihydropyridine-3-carboxylic acid N-[3-(2,4,6-trimethoxybenzoyl)propyl]piperidine-3'-yl ester, hydrochloride], the LD50 (in general, the dose expected to kill half of the subjects tested) in data set [2] was 249 ± 50 mg/kg. Besides, in data set [3], the “Duration of significant hypotension” value is on record as “at least 7 hours”; the “Heartbeat frequency, variation after 5 mins” value is given as “+13%”; the “Arterial pressure, variation after 3 hrs” value was -50%; the “Heartbeat frequency, variation after 5 hrs” value is on record as 0%. Also, in data set [3], the “Arterial pressure, variation after 7 hrs” value is on record as -42%; the “Heartbeat frequency / tachycardiac effect (in words)” value is given as “only slightly increased”; the “Secondary tachycardiac effect (in words)” value was “not found”. Also, the “Hypotension (in words)” value in data set [3] (during at least 7 hours) was “significantly raised”. In data set [4] (10 mg/kg intraperitoneal), the “Antihyperpermeable effect (intradermal concentration of Evan's Blue induced by histamine, in words)” value was “decrease greatly the intradermal concentration of Evan's Blue”. Further, the “Decrease in the intradermal concentration of Evan's Blue” value in data set [4] (ip, 10 mg/kg) was 50%. Further, the Solubility in water result in data set [1] (hydrochloride) was “water-insoluble”.

On to `COC(=O)C1=C(C)NC(C)=C(C(=O)OC2CCCN(CCCC(=O)c3c(OC)cc(OC)cc3OC)C2)C1c1cccc([N+](=O)[O-])c1` (centres unmarked) [Example 2, 2,6-dimethyl-4-(-3-nitrophenyl)-5-methoxycarbonyl-1,4-dihydropyridine-3-carboxylic acid N-[3-(2,4,6,trimethoxybenzoyl)propyl]piperidine-3-yl ester], for which the IC50 on DHP membranous site was 10 nM. The inhibition at 0.01 µM with rat's isolated aorta (dose 10^-8 M (= receptor IC50)) was found to be 60%. In addition, in data set [1], the Solubility in water result is recorded as “soluble in water in the presence of acetic acid”.

In the case of `COC(=O)C1=C(C)NC(C)=C(C(=O)OCC2CCCN2CCCC(=O)c2c(OC)cc(OC)cc2OC)C1c1cccc([N+](=O)[O-])c1` (centres unmarked) [Example 3, 2,6-dimethyl-4-(3-nitrophenyl-5-methoxycarbonyl-1,4-dihydropyridine-3-carboxylic acid N-[3-(2,4,6-trimethoxybenzoyl)propyl]pyrrolidylmethyl ester, hydrochloride], in data set [1], the Solubility in water result is “water-insoluble”.

Turning to `COC(=O)C1=C(C)NC(C)=C(C(=O)O[C@H]2CCCN(CCCC(=O)c3c(OC)cc(OC)cc3OC)C2)[C@H]1c1cccc([N+](=O)[O-])c1` [Example 4, (+)(4S, 3'S) 2,6-dimethyl-4-(3-nitrophenyl)-5-methoxycarbonyl-1,4-dihydropyridine-3-carboxylic acid N-[3-(2,4,6-trimethoxybenzoyl)propyl]piperidine-3'-yl ester], the half-inhibitory concentration (IC50) on DHP membranous site came out at 3 nM. The inhibition at 0.003 µM in the data set on rat's isolated aorta (dose 3 × 10^-9 M (= receptor IC50)) turned out to be 70%. Besides, in data set [1], the Solubility in water entry is given as “water-insoluble”.

Consider `COC(=O)C1=C(C)NC(C)=C(C(=O)O[C@@H]2CCCN(CCCC(=O)c3c(OC)cc(OC)cc3OC)C2)[C@@H]1c1cccc([N+](=O)[O-])c1` [Example 5, (-)(4R, 3'R) 2,6-dimethyl-4-(3-nitrophenyl)-5-methoxycarbonyl-1,4-dihydropyridine-3-carboxylic acid N-[3-(2,4,6-trimethoxybenzoyl)propyl]piperidine-3-yl ester], for which the Solubility in water entry in data set [1] is listed as “water-insoluble”.

With `COC(=O)C1=C(C)NC(C)=C(C(=O)O[C@H]2CCCN(CCCC(=O)c3c(OC)cc(OC)cc3OC)C2)[C@@H]1c1cccc([N+](=O)[O-])c1` [Example 6, (+)(4R, 3'S) 2,6-dimethyl-4-(3-nitrophenyl)-5-methoxycarbonyl-1,4-dihydropyridine-3-carboxylic acid N-[3-(2,4,6-trimethoxybenzoyl)propyl]piperidine-3'-yl ester], in data set [1], the Solubility in water entry is “water-insoluble”.

Regarding `COC(=O)C1=C(C)NC(C)=C(C(=O)O[C@@H]2CCCN(CCCC(=O)c3c(OC)cc(OC)cc3OC)C2)[C@H]1c1cccc([N+](=O)[O-])c1` [Example 7, (-)(4S, 3'R) 2,6-dimethyl-4-(3-nitrophenyl)-5-methoxycarbonyl-1,4-dihydropyridine-3-carboxylic acid N-[3-(2,4,6-trimethoxybenzoyl)propyl]piperidine-3'-yl ester], the IC50 on DHP membranous site was determined as 2 nM. Moreover, in the data set with rat's isolated aorta (dose 2 × 10^-9 M (= receptor IC50)), the inhibition at 0.002 µM is 80%. The Solubility in water result in data set [1] is on record as “water-insoluble”.

As for `COC(=O)C1=C(C)NC(C)=C(C(=O)OC2CCCN(CCCC(=O)c3c(OC)cc(OC)cc3OC)C2)C1c1cccc([N+](=O)[O-])c1` (centres unmarked) [Example 10, 2,6-dimethyl-4-(3-nitrophenyl)-5-methoxycarbonyl-1,4-dihydropyridine-3-carboxylic acid N-[3-(2,4,6-trimethoxybenzoyl)propyl]piperidine-3'-yl, lactate], the Solubility in water result in data set [1] was “soluble in cold water but is precipitated on warming”.

For the compound `COC(=O)C1=C(C)NC(C)=C(C(=O)OC2CCCN(CCCC(=O)c3c(OC)cc(OC)cc3OC)C2)C1c1cccc([N+](=O)[O-])c1` (centres unmarked) [Example 11, 2,6-dimethyl-4-(3-nitrophenyl)-5-methoxycarbonyl-1,4-dihydropyridine-3-carboxylic acid N-[3-(2,4,6-trimethoxybenzoyl)propyl]piperidine-3'-yl ester, glutamate], the Solubility in water entry in data set [1] is recorded as “water-insoluble”.

Regarding `COC(=O)C1=C(C)NC(C)=C(C(=O)OC2CCCN(CCCC(=O)c3c(OC)cc(OC)cc3OC)C2)C1c1cccc([N+](=O)[O-])c1` (centres unmarked) [Example 12, 2,6-dimethyl-4-(3-nitrophenyl)-5-methoxycarbonyl-1,4-dihydropyridine-3-carboxylic acid N-[3-(2,4,6-trimethoxybenzoyl)propyl]piperidine-3'-yl ester, aspartate], the Solubility in water entry in data set [1] was “water-insoluble”.

In data set [2], `COC(=O)C1=C(C)NC(C)=C(C(=O)OCCN(C)Cc2ccccc2)C1c1cccc([N+](=O)[O-])c1` (centres unmarked) [nicardipine, reference compound] yielded an LD50 of 233 ± 65 mg/kg. In data set [3], the “Time of maximum secondary tachycardiac effect” value stood at 5 h; the “Heartbeat frequency, variation after 5 mins” value was “+32%”; the “Arterial pressure, variation after 3 hrs” value is -39%; the “Heartbeat frequency, variation after 5 hrs” value was “+23%”. Further, in data set [3], the “Arterial pressure, variation after 7 hrs” value is reported as -27%; the “Heartbeat frequency / tachycardiac effect (in words)” value is recorded as “clear tachycardiac effect after five minutes”; the “Secondary tachycardiac effect (in words)” value is recorded as “secondary tachycardiae effect was also observed”.

These data come from patent publication US5250543A, “Derivatives of 1,4-dihydropyridine, their preparation procedure and therapeutic compositions containing them” (priority 1991, dated 1993).
